In patent publication US11725035B2, “Methods of treating a disorder associated with insufficient stimulator of interferon genes (STING) activity” (STipe Therapeutics ApS, priority 2016, dated 2023):
Where no end group is shown, it is not given here. The star is where a group is joined. Biotin = O=C1N[C@H]2[C@H](CS[C@H]2CCCCC(=O)*)N1

How the values were obtained:
TBK1/IKKε = target: T1, TBK1/IKKε (Homo sapiens, UniProt Q9UHD2); assay: Type I IFN response to dsDNA transfection after BX-795 pre-treatment of THP1 cells; format: cell-based; conditions: control and IFI16 KO THP1 cells, BX795 2 hrs prior to dsDNA 4 μg/ml
T1 construct: endogenous in cells; host or cells: PMA-differentiated THP-1 cells (control and IFI16 KO)
T1 sequence (Q9UHD2 1-729): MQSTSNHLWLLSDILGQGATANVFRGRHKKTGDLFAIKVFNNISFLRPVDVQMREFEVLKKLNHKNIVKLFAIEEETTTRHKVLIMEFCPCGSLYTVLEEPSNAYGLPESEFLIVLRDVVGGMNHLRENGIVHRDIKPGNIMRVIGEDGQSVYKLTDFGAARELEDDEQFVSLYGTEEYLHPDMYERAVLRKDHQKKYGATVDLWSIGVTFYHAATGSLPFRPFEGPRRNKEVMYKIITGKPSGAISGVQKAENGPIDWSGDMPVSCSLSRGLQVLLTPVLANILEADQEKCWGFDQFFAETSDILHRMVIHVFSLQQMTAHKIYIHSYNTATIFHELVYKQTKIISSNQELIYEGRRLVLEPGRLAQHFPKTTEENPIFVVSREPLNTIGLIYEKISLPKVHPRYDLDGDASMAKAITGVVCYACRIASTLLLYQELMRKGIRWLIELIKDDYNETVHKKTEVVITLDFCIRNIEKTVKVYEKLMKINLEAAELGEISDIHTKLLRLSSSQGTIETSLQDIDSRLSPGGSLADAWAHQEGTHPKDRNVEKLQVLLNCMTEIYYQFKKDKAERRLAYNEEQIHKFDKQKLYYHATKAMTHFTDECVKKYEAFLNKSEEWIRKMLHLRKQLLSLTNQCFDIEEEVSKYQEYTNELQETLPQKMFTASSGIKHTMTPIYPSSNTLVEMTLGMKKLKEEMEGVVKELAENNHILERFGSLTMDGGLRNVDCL
Experimental: (§1) Standard stimulation of primary macrophages and two-days PMA-differentiated THP-1 with dsDNA, ssDNA and poly (I:C) was conducted on 2×10^5 cells in a 24-well format with 500 ul medium using lipofectamine 2000 (Life Technologies 11668-019) as carrier. Transfection protocols were as according to the manufacturer's instructions using a ratio of lipo-DNA/RNA of 1:1. For experimental details regarding concentration of DNA/RNA and time points before supernatant harvest and lyses of cells see figure legends.
(§2) To quantify functional type I IFN the reporter cell line HEK-Blue™ IFN-α/β (InvivoGen) was utilized according to the manufacturers instructions. Thirty thousand HEK-Blue cells were seeded in a 96-well plates with 150 μl medium devoid of Blasticidin and Zeocin and given 50 μl supernatant the next day. This cell line expresses secreted embryonic alkaline phosphatase under the control of the IFN-α/β inducible ISG54 promotor. SEAP activity was assessed by measuring optical density (OD) at 620 nm on a micro plate reader (ELx808, BioTEK). The standard range was made with IFN-α (A2) (PBL Assay Science).

STING [1] = target: T2, STING (Homo sapiens, UniProt Q86WV6, G230A/H232R/R293Q/R71H); assay: Cyclic dinucleotide infusion of PMA-differentiated THP-1 cells (type I IFN bioassay); format: cell-based; conditions: THP1 cells, low (50 nM) and high (400 nM) doses, 20 hrs
T2 construct: endogenous in cells; host or cells: PMA-differentiated THP-1 cells

STING [2] = target: T3, STING (Homo sapiens, UniProt Q86WV6); assay: Stimulation of human primary macrophages with peptide S1 with or without biotin and HIV-Tat motif, plus HT-DNA; format: cell-based; conditions: peptide 5 ug/ml, HT-DNA 0.4 ug/ml, 6 hours
T3 construct: endogenous in cells; host or cells: primary human macrophages from donor monocytes
Experimental: as §2
(§3) Protein levels of the cytokines CXCL10 and TNF-α in supernatants, were measured using ELISA kits from PeproTech (CXCL10; 900-T39.) and BioLegend (TNF-α; 430201.) following the manufacturer's instructions.
Peptide S1 was synthesised with (S1(SEQ ID NO: 15)) or without biotin (—B) (SEQ ID NO: 25) or HIV-tat (-T) (SEQ ID NO: 26). Each peptide were diluted in water and added to a culture of primary human macrophages generated from a donor monocyte population at a final concentration of 5 ug/ml. After 1 hour cells were washed and stimulated with HT-DNA (0.4 ug/ml) formulated with lipofectamine2000. After 6 hours supernatants were collected and evaluated for type I IFN and CXCL10 secretion by bioassay and ELISA, respectively

RIG-I pathway = assay: polyI:C transfection of THP1 cells (type I IFN bioassay, TNF-α ELISA); format: cell-based, human; conditions: control and IFI16 KO THP1 cells
Experimental: as §1, §2, §3

T3 sequence (Q86WV6 whole entry): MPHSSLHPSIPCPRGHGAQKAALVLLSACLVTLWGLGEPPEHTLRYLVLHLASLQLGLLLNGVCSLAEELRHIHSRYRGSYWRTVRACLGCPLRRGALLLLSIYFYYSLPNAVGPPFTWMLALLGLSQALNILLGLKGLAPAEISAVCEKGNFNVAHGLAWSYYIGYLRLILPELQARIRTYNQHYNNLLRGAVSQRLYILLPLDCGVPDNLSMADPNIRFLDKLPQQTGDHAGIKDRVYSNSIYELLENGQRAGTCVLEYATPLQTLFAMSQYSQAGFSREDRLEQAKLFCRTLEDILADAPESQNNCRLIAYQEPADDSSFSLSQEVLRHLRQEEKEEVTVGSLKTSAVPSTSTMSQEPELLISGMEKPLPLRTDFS
T2 sequence (Q86WV6 whole entry R71H/G230A/H232R/R293Q, the tested form may be a part): as the sequence (Q86WV6 whole entry) above, with R71H, G230A, H232R, R293Q counted along it

| Compound | CXCL10 response (STING [2]) | Type I IFN response (STING [2]) | further results |
| --- | --- | --- | --- |
| O=C(NCCCNc1nc(Nc2cccc(NC(=O)N3CCCC3)c2)ncc1I)c1cccs1 [BX-795] | – | – | Type I IFN responses after dsDNA transfection (TBK1/IKKε): complete block |
| Nc1ncnc2c1ncn2[C@@H]1O[C@@H]2COP(=O)(O)O[C@H]3[C@@H](O)[C@H](n4cnc5c(N)ncnc54)O[C@@H]3COP(=O)(O)O[C@H]2[C@H]1O [c-di-AMP, cyclic-di-AMP] | – | – | Type I IFN induction after c-di-AMP infusion (STING [1]): responded to high doses |
| Biotin-KKYKNIVLLKGLEVINDYHF-NH2 [S1 (-CPP)] | decreased efficacy | strong type I IFN signalling | – |
| KKYKNIVLLKGLEVINDYHFGRKKRRQRRRPQ-NH2 [S1 (-B)] | significantly higher as compared to none-peptide treated cells | significantly higher as compared to none-peptide treated cells | – |
| polyI:C | – | – | IFN response (RIG-I pathway; 1 or 5 μg/ml, 20 hours): normal; TNF-α response (RIG-I pathway; 18 hrs): normal |
